Assay results published in US11981658B2, “Substituted aminopyridine compounds as EGFR inhibitors” (YUHAN CORPORATION, priority 2021, dated 2024).
Like-named read-outs stand apart in the source and are kept apart here.

Tests used:
[1] = target: EGFR L858R/T790M/C797S (Homo sapiens, UniProt P00533, C797S/L858R/T790M); assay: Biochemical EGFR kinase inhibition assay (Lance Ultra TR-FRET), triple mutant L858R/T790M/C797S
How it was run: (§1)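 Kinase activity is measured by TR-FRET phosphopeptide detection. Compounds span 0.003 μM to 10 μM; the 1 h reaction at room temperature is quenched with EDTA, then labelled antibody (2 nM) is incubated 60 min before reading.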

[2] = target: EGFR L858R/C797S (Homo sapiens, UniProt P00533, C797S/L858R); assay: Biochemical EGFR kinase inhibition assay (Lance Ultra TR-FRET), double mutant L858R/C797S
How it was run: as §1

[3] = target: EGFR Del19/C797S (Homo sapiens, UniProt P00533, C797S/DEL746-750); assay: Biochemical EGFR kinase inhibition assay (Lance Ultra TR-FRET), double mutant del19/C797S
How it was run: as §1

[4] = target: EGFR wildtype (WT) (Homo sapiens, UniProt P00533); assay: Biochemical EGFR kinase inhibition assay (Lance Ultra TR-FRET), wildtype
How it was run: as §1

[5] = target: EGFR Del19/T790M/C797S (Homo sapiens, UniProt P00533, C797S/DEL746-750/T790M); assay: Biochemical EGFR kinase inhibition assay (Lance Ultra TR-FRET), triple mutant del19/T790M/C797S
How it was run: as §1

[6] = IC50 L858R/T790M/C797S (nM), 100 μM ATP
[7] = Km ATP, read-out: IC50 L858R/T790M/C797S (nM), Km ATP
[8] = IC50 L858R/C797S (nM), 100 μM ATP
[9] = Km ATP, read-out: IC50 L858R/C797S (nM), Km ATP
[10] = IC50 Del19/C797S (nM), 100 μM ATP
[11] = Km ATP, read-out: IC50 Del19/C797S (nM), Km ATP
[12] = Km ATP, read-out: IC50 WT (nM), Km ATP
[13] = IC50 Del19/T790M/C797S (nM), 100 μM ATP
[14] = Km ATP, read-out: IC50 Del19/T790M/C797S (nM), Km ATP

Sequence of EGFR Del19/C797S (P00533 with tags, fused parts or gaps DEL746-750/C797S): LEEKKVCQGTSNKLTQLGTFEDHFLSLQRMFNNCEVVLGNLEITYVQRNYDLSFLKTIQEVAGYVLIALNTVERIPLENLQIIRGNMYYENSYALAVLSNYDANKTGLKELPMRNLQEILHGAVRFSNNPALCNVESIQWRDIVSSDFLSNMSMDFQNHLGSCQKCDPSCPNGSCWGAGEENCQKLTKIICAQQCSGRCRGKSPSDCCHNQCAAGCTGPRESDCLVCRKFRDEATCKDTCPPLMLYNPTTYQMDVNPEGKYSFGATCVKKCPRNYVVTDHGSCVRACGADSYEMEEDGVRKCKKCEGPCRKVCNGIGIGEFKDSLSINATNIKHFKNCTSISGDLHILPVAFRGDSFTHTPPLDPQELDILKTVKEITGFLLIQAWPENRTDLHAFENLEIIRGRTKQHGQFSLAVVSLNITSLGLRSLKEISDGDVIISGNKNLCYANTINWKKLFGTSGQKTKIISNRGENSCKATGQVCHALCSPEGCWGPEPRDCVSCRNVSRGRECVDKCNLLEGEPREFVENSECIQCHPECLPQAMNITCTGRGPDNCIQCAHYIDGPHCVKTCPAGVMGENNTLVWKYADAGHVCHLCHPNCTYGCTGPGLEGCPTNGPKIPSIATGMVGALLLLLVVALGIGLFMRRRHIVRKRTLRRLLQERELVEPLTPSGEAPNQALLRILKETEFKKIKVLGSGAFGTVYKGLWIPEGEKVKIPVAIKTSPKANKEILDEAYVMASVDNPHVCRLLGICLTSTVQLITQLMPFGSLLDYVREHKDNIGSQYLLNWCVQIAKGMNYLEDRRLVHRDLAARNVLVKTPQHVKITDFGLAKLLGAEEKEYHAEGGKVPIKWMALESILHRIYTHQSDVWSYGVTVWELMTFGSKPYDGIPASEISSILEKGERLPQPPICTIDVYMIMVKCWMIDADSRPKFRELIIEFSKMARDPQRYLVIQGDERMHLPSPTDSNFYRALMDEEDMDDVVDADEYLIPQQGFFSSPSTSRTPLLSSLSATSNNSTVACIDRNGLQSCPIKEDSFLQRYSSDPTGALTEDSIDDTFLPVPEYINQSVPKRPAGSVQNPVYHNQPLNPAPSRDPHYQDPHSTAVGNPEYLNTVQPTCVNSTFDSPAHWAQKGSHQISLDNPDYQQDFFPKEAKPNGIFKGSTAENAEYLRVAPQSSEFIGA
Sequence of EGFR Del19/T790M/C797S (P00533 with tags, fused parts or gaps DEL746-750/T790M/C797S): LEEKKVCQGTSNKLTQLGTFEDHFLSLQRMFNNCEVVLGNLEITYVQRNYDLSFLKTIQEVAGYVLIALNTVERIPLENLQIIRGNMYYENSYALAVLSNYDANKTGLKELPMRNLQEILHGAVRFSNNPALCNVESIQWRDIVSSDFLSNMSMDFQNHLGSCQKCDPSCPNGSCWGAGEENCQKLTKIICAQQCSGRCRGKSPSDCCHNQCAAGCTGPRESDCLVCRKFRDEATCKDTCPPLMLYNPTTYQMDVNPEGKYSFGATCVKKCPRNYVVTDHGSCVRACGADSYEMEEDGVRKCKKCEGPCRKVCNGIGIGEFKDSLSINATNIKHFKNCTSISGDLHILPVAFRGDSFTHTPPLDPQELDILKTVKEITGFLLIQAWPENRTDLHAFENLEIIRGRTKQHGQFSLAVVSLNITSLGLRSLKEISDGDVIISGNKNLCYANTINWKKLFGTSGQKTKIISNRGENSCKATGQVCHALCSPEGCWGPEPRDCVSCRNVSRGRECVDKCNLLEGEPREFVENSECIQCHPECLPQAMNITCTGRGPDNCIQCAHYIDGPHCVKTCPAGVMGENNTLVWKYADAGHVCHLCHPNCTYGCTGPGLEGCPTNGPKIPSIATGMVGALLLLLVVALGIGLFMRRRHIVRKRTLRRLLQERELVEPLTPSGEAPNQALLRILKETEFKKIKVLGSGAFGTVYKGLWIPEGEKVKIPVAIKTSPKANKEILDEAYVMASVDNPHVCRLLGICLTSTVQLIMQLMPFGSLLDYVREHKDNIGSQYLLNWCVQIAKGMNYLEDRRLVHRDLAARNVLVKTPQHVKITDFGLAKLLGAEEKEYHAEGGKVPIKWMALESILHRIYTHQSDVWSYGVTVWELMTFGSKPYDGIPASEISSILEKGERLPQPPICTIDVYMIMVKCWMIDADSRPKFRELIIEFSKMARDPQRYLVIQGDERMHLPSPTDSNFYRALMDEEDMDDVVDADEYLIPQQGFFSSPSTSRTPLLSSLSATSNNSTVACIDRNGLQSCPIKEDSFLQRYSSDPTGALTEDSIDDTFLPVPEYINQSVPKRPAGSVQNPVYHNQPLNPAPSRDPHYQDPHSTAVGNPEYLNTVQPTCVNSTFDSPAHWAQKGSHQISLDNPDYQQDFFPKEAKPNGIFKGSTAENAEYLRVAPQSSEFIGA
Sequence of EGFR L858R/T790M/C797S (P00533 25-1210 T790M/C797S/L858R): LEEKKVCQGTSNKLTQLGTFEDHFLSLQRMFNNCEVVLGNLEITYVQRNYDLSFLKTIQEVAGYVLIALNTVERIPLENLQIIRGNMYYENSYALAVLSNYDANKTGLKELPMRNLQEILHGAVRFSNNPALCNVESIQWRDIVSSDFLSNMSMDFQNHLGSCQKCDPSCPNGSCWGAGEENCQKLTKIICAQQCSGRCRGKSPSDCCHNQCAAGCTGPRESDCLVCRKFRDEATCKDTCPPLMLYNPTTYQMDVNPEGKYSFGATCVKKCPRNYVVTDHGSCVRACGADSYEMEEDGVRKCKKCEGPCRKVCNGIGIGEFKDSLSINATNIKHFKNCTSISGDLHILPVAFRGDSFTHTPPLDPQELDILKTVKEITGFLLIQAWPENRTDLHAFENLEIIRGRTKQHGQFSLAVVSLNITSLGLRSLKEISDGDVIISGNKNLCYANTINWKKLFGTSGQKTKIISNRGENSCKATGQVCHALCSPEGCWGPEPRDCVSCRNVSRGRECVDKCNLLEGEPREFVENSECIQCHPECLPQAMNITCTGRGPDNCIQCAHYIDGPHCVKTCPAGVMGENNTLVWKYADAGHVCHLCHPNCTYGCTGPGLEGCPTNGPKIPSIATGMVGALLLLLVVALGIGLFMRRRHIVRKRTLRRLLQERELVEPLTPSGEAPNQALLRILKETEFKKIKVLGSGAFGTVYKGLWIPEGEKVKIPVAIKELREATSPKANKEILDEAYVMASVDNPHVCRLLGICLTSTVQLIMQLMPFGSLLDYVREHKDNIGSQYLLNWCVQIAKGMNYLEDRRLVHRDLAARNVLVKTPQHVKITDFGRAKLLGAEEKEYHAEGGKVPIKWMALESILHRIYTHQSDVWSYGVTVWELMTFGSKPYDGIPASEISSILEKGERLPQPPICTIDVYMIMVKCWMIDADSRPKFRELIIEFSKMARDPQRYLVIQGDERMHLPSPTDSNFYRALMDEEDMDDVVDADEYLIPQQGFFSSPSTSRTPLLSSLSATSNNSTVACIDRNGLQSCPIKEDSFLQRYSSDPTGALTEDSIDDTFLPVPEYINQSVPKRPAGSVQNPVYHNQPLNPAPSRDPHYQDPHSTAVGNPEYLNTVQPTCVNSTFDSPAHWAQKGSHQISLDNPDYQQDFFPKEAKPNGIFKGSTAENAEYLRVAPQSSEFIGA
Sequence of EGFR wildtype (WT) (P00533 25-1210): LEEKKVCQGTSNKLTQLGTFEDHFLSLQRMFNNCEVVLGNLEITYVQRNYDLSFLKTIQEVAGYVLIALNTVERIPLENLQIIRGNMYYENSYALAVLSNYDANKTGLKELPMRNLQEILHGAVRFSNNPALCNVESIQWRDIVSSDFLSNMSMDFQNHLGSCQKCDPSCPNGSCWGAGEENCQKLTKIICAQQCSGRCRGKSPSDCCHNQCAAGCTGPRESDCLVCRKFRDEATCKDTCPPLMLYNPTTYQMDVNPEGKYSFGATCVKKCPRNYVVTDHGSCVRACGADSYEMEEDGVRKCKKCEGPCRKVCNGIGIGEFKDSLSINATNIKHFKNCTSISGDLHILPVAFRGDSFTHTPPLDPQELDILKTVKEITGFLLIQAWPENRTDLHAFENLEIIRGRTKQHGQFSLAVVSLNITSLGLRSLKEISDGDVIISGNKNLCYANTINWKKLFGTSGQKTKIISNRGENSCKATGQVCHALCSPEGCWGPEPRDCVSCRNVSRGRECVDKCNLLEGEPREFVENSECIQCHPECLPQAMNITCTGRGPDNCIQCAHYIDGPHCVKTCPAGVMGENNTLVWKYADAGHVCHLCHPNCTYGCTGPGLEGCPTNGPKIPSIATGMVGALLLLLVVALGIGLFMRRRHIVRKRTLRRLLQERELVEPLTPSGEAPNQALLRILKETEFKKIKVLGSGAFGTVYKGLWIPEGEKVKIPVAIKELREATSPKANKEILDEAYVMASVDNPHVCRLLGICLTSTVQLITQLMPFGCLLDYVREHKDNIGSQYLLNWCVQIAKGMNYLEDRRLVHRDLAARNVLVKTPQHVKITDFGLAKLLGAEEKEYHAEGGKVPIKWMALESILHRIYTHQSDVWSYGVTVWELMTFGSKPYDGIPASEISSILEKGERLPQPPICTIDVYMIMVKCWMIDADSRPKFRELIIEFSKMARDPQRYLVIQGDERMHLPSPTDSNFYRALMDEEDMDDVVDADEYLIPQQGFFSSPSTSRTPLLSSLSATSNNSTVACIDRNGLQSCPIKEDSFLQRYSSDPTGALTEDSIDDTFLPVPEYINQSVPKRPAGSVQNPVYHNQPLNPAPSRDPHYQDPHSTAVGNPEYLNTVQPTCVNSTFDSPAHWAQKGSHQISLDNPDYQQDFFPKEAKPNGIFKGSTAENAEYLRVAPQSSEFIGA

Row | SMILES | IC50 [1, 6] [nM] | IC50 [1, 7] [nM] | IC50 [2, 8] [nM] | IC50 [2, 9] [nM] | IC50 [3, 10] [nM] | IC50 [3, 11] [nM] | IC50 ([4]; IC50 WT (nM), 100 μM ATP) [nM] | IC50 [4, 12] [nM] | IC50 [5, 13] [nM] | IC50 [5, 14] [nM]
1 | CC1(CO)CCN(c2cc(Nc3ccnc(-c4cnn(S(=O)(=O)C5CC5)c4)n3)ncc2C#CC2(O)CCC2)CC1 [Example 351, 1-((6-((2-(1-(Cyclopropylsulfonyl)-1H-pyrazol-4-yl)pyrimidin-4-yl)amino)-4-(4-(hydroxymethyl)-4-methylpiperidin-1-yl)pyridin-3-yl)ethynyl)cyclobutan-1-ol] | 1.6 | 0.8 | 77.8 | 12.8 | 3.7 | 4.9 | 7620 | 44.2 | 1.2 | 1.6
2 | CC1(CO)CCN(c2cc(Nc3ccnc(-c4cnn(S(=O)(=O)C5CC5)c4)n3)ncc2C#CC2COC2)CC1 [Example 352, (1-(2-((2-(1-(Cyclopropylsulfonyl)-1H-pyrazol-4-yl)pyrimidin-4-yl)amino)-5-(oxetan-3-ylethynyl)pyridin-4-yl)-4-methylpiperidin-4-yl)methanol] | 0.2 | 0.1 | 9.5 | 1.6 | 0.5 | 0.6 | 820 | 5.5 | 0.3 | 0.3
3 | O=S(=O)(C1CC1)n1cc(-c2nccc(Nc3cc(N[C@H]4CC[C@@H](O)CC4)c(C#CC4COC4)cn3)n2)cn1 [Example 353, (1s,4s)-4-((2-((2-(1-(Cyclopropylsulfonyl)-1H-pyrazol-4-yl)pyrimidin-4-yl)amino)-5-(oxetan-3-ylethynyl)pyridin-4-yl)amino)cyclohexan-1-ol] | 0.2 | 0.1 | 16.6 | 3.3 | 0.6 | 1 | > 10000 | 11.3 | 0.2 | 0.2
4 | CC1(CO)CCN(c2cc(Nc3ccnc(-c4cnn(S(=O)(=O)C5CC5)c4)n3)ncc2C#CC2(O)COC2)CC1 [Example 354, 3-((6-((2-(1-(Cyclopropylsulfonyl)-1H-pyrazol-4-yl)pyrimidin-4-yl)amino)-4-(4-(hydroxymethyl)-4-methylpiperidin-1-yl)pyridin-3-yl)ethynyl)oxetan-3-ol] | 0.2 | 0.1 | 8.6 | 0.8 | 0.5 | 0.3 | 1630 | 5.1 | 0.2 | 0.2
5 | CC1(CO)CCN(c2cc(Nc3ccnc(-c4cnn(S(=O)(=O)C5CC5)c4)n3)ncc2C#CC2(O)CCOC2)CC1 (stereo not shown) [Example 355, 3-((6-((2-(1-(Cyclopropylsulfonyl)-1H-pyrazol-4-yl)pyrimidin-4-yl)amino)-4-(4-(hydroxymethyl)-4-methylpiperidin-1-yl)pyridin-3-yl)ethynyl)tetrahydrofuran-3-ol] | 0.2 | 0.1 | 7.4 | 0.5 | 0.4 | 0.2 | 1740 | 4.8 | 0.2 | 0.2
6 | O=S(=O)(C1CC1)n1cc(-c2nccc(Nc3cc(NC4CCC(O)CC4)c(C#CC4(O)CCOC4)cn3)n2)cn1 (stereo not shown) [Example 356, 3-((6-((2-(1-(Cyclopropylsulfonyl)-1H-pyrazol-4-yl)pyrimidin-4-yl)amino)-4-(((1 s, 4s)-4-hydroxycyclohexyl)amino)pyridin-3-yl)ethynyl)tetrahydrofuran-3-ol] | 0.3 | 0.1 | 24.5 | 2 | 0.9 | 0.6 | 5310 | 20.1 | 0.2 | 0.2
7 | CC1(CO)CCN(c2cc(Nc3ccnc(-c4cnn(S(=O)(=O)C5CC5)c4)n3)ncc2C#CC2(O)CCCOC2)CC1 (stereo not shown) [Example 357, 3-((6-((2-(1-(Cyclopropylsulfonyl)-1H-pyrazol-4-yl)pyrimidin-4-yl)amino)-4-(4-(hydroxymethyl)-4-methylpiperidin-1-yl)pyridin-3-yl)ethynyl)tetrahydro-2H-pyran-3-ol] | 0.4 | 0.1 | 14 | 1.5 | 1.5 | 1.4 | 4710 | 9.2 | 0.3 | 0.2
